Test results taken from patent US8383582B2, “Inhibitor against forming biofilm comprising κ-casein macropeptide” (Industry Foundation of Chonnam National University, priority 2010, dated 2013).

Tests used:
[1] = test system: L. monocytogenes Scott A to HT-29 cell; experiment: Invasion analysis (gentamicin-based) on HT-29 cells; assay type: cell-based, Listeria monocytogenes; conditions: CMP 0.4 mg/ml, at the lower MOI, 1.5 h 37° C.
From the text: The human intestinal epithelial cell line HT-29 and the human gastric epithelial cell line AGS were purchased from the Korea Cell Line Bank (KCLB; Seoul, Korea). HT-29 cells have been extensively used as a model system for studying interaction of enteric pathogens with intestinal epithelial cells. All media and fetal bovine serum (FBS) were obtained from Gibco BRL (Life Technologies Inc., Grand Island, N.Y., USA) and JBI (Jeil Biotech services Inc., Seoul, Korea). The HT-29 and AGS cells were grown in RPMI-1640 medium which was supplemented with 10% heat-inactivated FBS. The cells were routinely cultured at 37° C. in 5% CO2 incubator with 6-well or 12-well tissue culture plates for adhesion and invasion assays and in 100-mm-diameter tissue culture plates for RNA isolation.
The invasion of epithelial cells by L. monocytogenes Scott A was studied using the gentamicin-based assay described by Bunduki et al. (1993) and Gaillard et al. (1987) with modifications. Briefly, the HT-29 and the AGS cells monolayers (10^6 cells) were inoculated with 100 μl of the L. monocytogenes Scott A suspension (10^8 and 10^6 CFU/ml) and incubated for 1.5 h at 37° C. in the absence or presence of 0.4 mg/ml CMP, respectively. The monolayers were washed with PBS, followed by the addition of 250 μl of 1 mg/ml gentamicin (Sigma) and incubation for an additional 1.5 h. […]

[2] = test system: L. monocytogenes Scott A biofilm cells; experiment: Two-dimensional gel electrophoresis / LC-MS/MS of biofilm cell protein extracts; assay type: cell-based, Listeria monocytogenes
Experimental: This biofilm formation protocol was adapted from that used for the microtiter plate assay in this invention, to obtain a sufficient quantity of biofilm cells for two-dimensional gel electrophoresis (2-DE). Biofilms were prepared by using a slight modification of a previously described method (Ren et al., 2004). L. monocytogenes was grown in TSBYE overnight, and a 2.5 ml overnight culture was washed twice with PBS. Then, the cells were inoculated into a 250-ml shake flask containing 100 ml fresh MWB with or without the effective concentration of CMP on 10 g sterilized glass wool (Pyrex fiber glass; Corning, N.Y., USA). The cells were incubated with shaking (250 rpm in a shaking incubator; Vision Scientific Co., Ltd., Korea) at 30° C. to form a biofilm on the glass wool. After 24 h inoculation, the glass wool was retrieved from the culture, and quickly and gently washed twice in 100 ml of 0.85% sodium chloride buffer (within 30 s) at 4° C. The biofilm cells were removed from the glass wool by sonication in 200 ml of 0.85% sodium chloride buffer at 4° C. for 2 min. The buffer was then centrifuged (8,000×g in a VS-21S MT centrifuge; Vision Scientific Co., Ltd.) for 10 min at 4° C. to precipitate the biofilm cells. These cells were washed twice by centrifugation (8,000×g, 10 min, 4° C.) with 0.85% sodium chloride buffer; the cell pellets were flash-frozen in liquid nitrogen. While sonicating, suspended biofilm cells with an optical density at 600 nm of 2 were harvested by centrifugation (8,000×g) at room temperature for 10 min in an Eppendorf tube. The cell pellets were then flash-frozen in liquid nitrogen and kept at −80° C. until protein extraction.
The biofilm cells harvested from the glass wool were suspended in the same lysis buffer (TE buffer; 40 mM Tris, 1 mM EDTA, pH 8.0) and lysed by using Ultraschallprozessor UP200S (amplification 70, 0.5 cycle; Dr. Hielscher GmbH) 20 times for 30 s on ice. Following sonication, the unlysed cells, cell debris, and glass fibers were removed by centrifugation (8,000×g, 4° C.), and the supernatant fluids were recovered.
Protein samples were precipitated by using the phenol protocol of Hanna et al. (2000). The protein concentration was determined by using the modified Bradford assay method (Ramagli, 1999). The protein samples were stored at −80° C. until proteomic analysis.
The method described by Kim et al. (2006) with slight modifications was used for 2-DE. In the first dimension of isoelectric focusing (IEF), precast immobilized pH gradient (IPG) strips, with a nonlinear gradient from pH 3 to 10 (Bio-Rad Laboratories, Richmond, Calif., USA), were rehydrated for 12-18 h with 500 μg of protein in 300 μl of rehydration buffer (8 M urea, 2% CHAPS, 50 mM DTT, 10% isopropanol, 5% glycerol, 0.002% bromophenol blue, 0.2% ampholytes, water). In accordance with the manufacturer's instructions, focusing was performed by using a Protean IEF cell system (Bio-Rad Laboratories) at 20° C. under 60,000 Vh. After IEF, the strips were incubated for 10 min in equilibration buffer I (6 M urea, 2% SDS, 20% glycerol, 130 mM DTT, 0.375 M Tris-HCl [pH 8.8]), followed by another 10 min in equilibration buffer II (6 M urea, 2% SDS, 20% glycerol, 135 mM iodoacetamide, 0.375 M Tris-HCl [pH 8.8]). After equilibration, the strips were transferred to 12.5% sodium dodecyl sulfate (SDS)-polyacrylamide gels (20×22 cm) for running in the second dimension.
The proteins were separated by using a Protean II xi system (Bio-Rad Laboratories) with 20 mA per gel at 4° C. The protein spots were visualized by blue-silver staining (Candiano et al., 2004). The stained gels were then scanned with a densitometric scanner (UTA 2100XL; UMAX, Dallas, Tex., USA), and the spots were analyzed by using the PDQuest software (Bio-Rad Laboratories) in accordance with the manufacturer's instructions. Four gels resulting from two independent experiments were obtained, and two gels of good quality were used for analysis. […]

[3] = presence of 0.4 mg/ml CMP vs absence

Substance: κ-casein macropeptide [CMP]
- invasion of L. monocytogenes Scott A [1]: prevented
- protein spots with increase or decrease in amounts compared to the control ([2]; 0.4 mg/ml CMP, about 320 spots visualized): two and seven spots were up- and down-regulated
- FC, Fold difference in biofilm: spot 0302 enolase [2, 3]: −3.8 Fold
- FC, Fold difference in biofilm: spot 2004 glutamine synthetase [2, 3]: +2.4 Fold
- FC, Fold difference in biofilm: spot 4405 6-phosphofructokinase [2, 3]: −2.8 Fold
- FC, Fold difference in biofilm: spot 5104 hypothetical protein Smal_0271 [2, 3]: ∇
- FC, Fold difference in biofilm: spot 5105 conserved hypothetical protein [2, 3]: −2.0 Fold
- FC, Fold difference in biofilm: spot 5206 Gap [2, 3]: +2.9 Fold
- FC, Fold difference in biofilm: spot 5207 hypothetical protein Smal_0271 [2, 3]: −2.4 Fold
- FC, Fold difference in biofilm: spot 6103 glutamine synthetase [2, 3]: −2.0 Fold
- FC, Fold difference in biofilm: spot 7202 phosphoglycerate mutase 1 family [2, 3]: −3.2 Fold
